Data published in patent US8895317B2, “Reagent for measuring active nitrogen” (The University of Tokyo, priority 2008, dated 2014).

How the values were obtained:
[1] = Stability under physiological conditions; format: physicochemical
Source text: (§1) Therefore, use of DCl-DA Cal enables observation of intracellular reactive nitrogen species over such a long period of time that cannot be achieved by conventional fluorescent probes for measuring reactive nitrogen.

[2] = Fluorescence quantum yield; format: physicochemical; details: triazole compound at a physiological pH
Source text: as §1

stability under physiological conditions [1]: stable under physiological conditions
fluorescence quantum yield Φf [2]: 0.63
SMILES: O=C(O)CN(CC(=O)O)Cc1c2oc3c(CN(CC(=O)O)CC(=O)O)c(O)c(Cl)cc3c(-c3ccc4[nH]nnc4c3C(=O)O)c-2cc(Cl)c1=O [triazole compound]
